Measurements from patent US20200129622A1, “METHODS OF MAKING ANTIMICROBIAL BIOPOLYMER FROM SODIUM ALGINATE AND ALGAE EXTRACT USING AMINOGLYCOSIDES, AND METHODS OF USING THE SAME” (Colorado School of Mines, priority 2018, published 2020).
Counter-ions that a name gives are not always drawn.

Tested on: E. coli DH5α
Experiment: Antimicrobial activity by agar diffusion assay (zone of inhibition)
Type: cell-based
Design: unit not given here
Settings: 50 μl of 10 mg/ml aqueous antibiotic stock in agar well; 37° C., 18 hr
Protocol: Antimicrobial activity of polymers was checked against E. coli DH5α using agar diffusion assay. Single colony of E. coli was inoculated in 10 ml of Luria Broth (LB) and incubated till OD600 reached 0.5 (log-phase culture) and 100 μl of bacterial culture was spread over LB agar plates. To check the antimicrobial activity of the antibiotics, wells were made by punching a hole in the LB agar plates. For reference plates, 50 μl of 10 mg/ml aqueous stock solution of each antibiotic was added in the wells as shown in the top row of FIG. 6.
For experiments with alginate polymers, polymer pellets were washed three times with sterile DI water to remove any unbound free antibiotics. Each washing step included the addition of 500 μl of sterile DI water and centrifugation at 10000 rpm for 15 min. After washing, polymer pellets were placed at the center of the LB plates with E. coli DH5α. Plates were incubated at 37° C. for 18 hours (hr). The zone of inhibition, e.g., the area with no growth of bacteria around well or polymer pellet, was measured using a ruler as shown in the middle and bottom rows of FIG. 6 and in Table 3 below.
The antimicrobial property of alginateaminoglycoside polymer against E. coli DH5α was quantified by measurement of the zone of bacterial inhibition. In particular, aminoglycoside biopolymers were prepared in microcentrifuge tubes and after centrifugation, pellet was washed three times with sterile deionized water to remove free antibiotic. After washing, the polymer pellet was carefully removed using a spatula and placed at the center of the plate containing E. coli DH5α cells and incubated for 18 hr. After incubation for 18 hr, white polymer pellets became transparent to varying degrees.
In particular, circular zones of growth inhibition are visible after antibiotics and polymers were placed in wells at the centers of LB plates. […] While polymers made with KS, GS, and KDS became transparent, polymers made with TS and NS remained white.

Molecule	diameter of zone of inhibition, Antibiotic only
neomycin sulfate [NS]	3.0 ± 0.2
tobramycin sulfate [TS]	3.1 ± 0.1
gentamicin sulfate [GS]	2.9 ± 0.1
[H]/N=C(/N)N[C@H]1[C@H](O)[C@@H](O)[C@H](O[C@@H]2O[C@@H](C)[C@](O)(C=O)[C@H]2O[C@@H]2O[C@@H](CO)[C@H](O)[C@@H](O)[C@@H]2NC)[C@@H](N/C(N)=N\[H])[C@@H]1O [SS, streptomycin sulfate]	3.5 ± 0.1
NC[C@H]1O[C@H](O[C@H]2[C@H](O)[C@@H](O[C@H]3O[C@H](CO)[C@@H](O)[C@H](N)[C@H]3O)[C@H](N)C[C@@H]2N)[C@H](O)[C@@H](O)[C@@H]1O [KS, kanamycin sulfate]	3.4 ± 0.1
kanamycin disulfate [KDS]	3.0 ± 0.1
